# Reference: patent publication EP4678638A1, “NEW E3 UBIQUITIN LIGASE LIGAND, PROTEIN DEGRADATION AGENT AND USE THEREOF” (priority 2023, dated 2024)
# Test system: EGFR
# Assay: Western blot degradation of EGFR (H1975 Cell)
# Assay type: cell-based, Human
# Settings: Table D2
# Description: Conventional Western blot assay was performed to evaluate the effects of the compounds of the present disclosure on the expression of target proteins in cells.
# (1) Cell Seeding and Protein Harvesting: The selected cells were processed according to the cell seeding procedure and protein harvesting procedure in Table III-2. Table III-2 Cell Seeding and Protein Harvesting Procedures
# (2) To the collected supernatant, 5X SDS sample loading buffer was added, followed by denaturation at 95°C for 5 minutes. The denatured samples were then separated by SDS-PAGE electrophoresis on a polyacrylamide gel. Proteins were transferred to a nitrocellulose membrane (0.45 µm NC membrane), blocked with blocking buffer at room temperature for 1 hour, and subjected to antibody incubation and development procedures according to the antibody manufacturer's instructions (Cell Signaling Technology).
# Half-Maximal Degradation Concentration value (the drug concentration required for degrading proteins by 50%, abbreviated as DC50) reads method: comparing the grayscale values of Western blot bands from drug-treated samples with those from blank DMSO-treated controls, and identifying the drug concentration range at which the grayscale value is half that of the DMSO-treated control bands.
# DC50 values can be calculated using ImageJ software to measure grayscale values of Western blot bands from drug-treated samples. The concentration-response curve is fitted to estimate the drug concentration corresponding to half the grayscale value.
# Target protein remaining (%) refers to the percentage of target protein remaining in hPBMC cells after treatment with protein degrader compounds.
# Calculation method for target protein remaining (%): Use ImageJ software to measure grayscale values of Western blot bands from drug (protein degrader)-treated samples. The grayscale value of drug-treated bands is divided by that of internal control protein bands, and the resulting quotient is normalized to obtain the relative percentage of remaining target protein after protein degrader treatment.
# Target protein degradation rate (%) = 100% - target protein remaining (%).
row,Compound,Degradation of substrate protein EGFR (substrate protein remaining %)
1,"O=C1CCC(c2ccc(CN3CCN(C4CCN(c5ccc(-c6cc(F)c7c(c6)C(=O)N(C(C(=O)Nc6nccs6)c6ncn8c6CCC8)C7)cc5)CC4(F)F)CC3)cc2)C(=O)N1 (centres unmarked) [GT-06317, 2-(6,7-dihydro-5H-pyrrolo[1,2-c]imidazol-1-yl)-2-(6-(4-(4-(4-(4-(2,6-dioxopiperidin-3-yl)benzyl)piperazin-1-yl)-3,3-difluoropiperidin-1-yl)phenyl)-4-fluoro-1-oxoisoindolin-2-yl)-N-(thiazol-2-yl)acetamide]",A (A is defined as 0% ≤ substrate protein remaining % ≤ 80%)
2,"COC1CCN(c2nccc(Nc3cc4c(cn3)c(N3CCC(N(C)Cc5cccc(NC6CCC(=O)NC6=O)c5)CC3)nn4C(C)C)n2)CC1 (centres unmarked) [GT-06123, 3-((3-(((1-(1-isopropyl-6-((2-(4-methoxypiperidin-1-yl)pyrimidin-4-yl)amino)-1H-pyrazolo[4,3-c]pyridin-3-yl)piperidin-4-yl)(methyl)amino)methyl)phenyl)amino)piperidine-2,6-dione]",A (A is defined as 0% ≤ substrate protein remaining % ≤ 80%)
3,"COC1CCN(c2nccc(Nc3cc4c(cn3)c(N3CCN(Cc5ccc(N6CCC(=O)NC6=O)cn5)CC3)nn4C(C)C)n2)CC1 [GT-06039, 1-(6-((4-(1-isopropyl-6-((2-(4-methoxypiperidin-1-yl)pyrimidin-4-yl)amino)-1H-pyrazolo[4,3-c]pyridin-3-yl)piperazin-1-yl)methyl)pyridin-3-yl)dihydropyrimidine-2,4(1H,3H)-dione]",A (A is defined as 0% ≤ substrate protein remaining % ≤ 80%)
4,"COc1cc(N2CCN(Cc3ccc(C4CCC(=O)NC4=O)cc3)CC2)c(C)cc1Nc1ncc(Br)c(Nc2ccc3nccnc3c2P(C)(C)=O)n1 (centres unmarked) [GT-03913, 3-(4-((4-(4-((5-bromo-4-((5-(dimethylphosphoryl)quinoxalin-6-yl)amino)pyrimidin-2-yl)amino)-5-methoxy-2-methylphenyl)piperazin-1-yl)methyl)phenyl)piperidine-2,6-dione]",A (A is defined as 0% ≤ substrate protein remaining % ≤ 80%)
5,"CC(C)n1nc(N2CCN(Cc3cccc(NC4CCC(=O)NC4=O)c3)CC2)c2cnc(Nc3ccnc(-c4cnn(S(=O)(=O)C5CC5)c4)n3)cc21 (centres unmarked) [GT-06016, 3-((3-((4-(6-((2-(1-(cyclopropylsulfonyl)-1H-pyrazol-4-yl)pyrimidin-4-yl)amino)-1-isopropyl-1H-pyrazolo[4,3-c]pyridin-3-yl)piperazin-1-yl)methyl)phenyl)amino)pip eridine-2,6-dione]",A (A is defined as 0% ≤ substrate protein remaining % ≤ 80%)
6,"COC1CCN(c2nccc(Nc3cc4c(cn3)c(N3CCC(N(C)Cc5ccc(C6CCC(=O)NC6=O)cc5)CC3)nn4C(C)C)n2)CC1 (centres unmarked) [GT-06120, 3-(4-(((1-(1-isopropyl-6-((2-(4-methoxypiperidin-1-yl)pyrimidin-4-yl)amino)-1H-pyrazolo[4,3-c]pyridin-3-yl)piperidin-4-yl)(methyl)amino)methyl)phenyl)piperidine-2,6-dione]",A (A is defined as 0% ≤ substrate protein remaining % ≤ 80%)
7,"CC(C)n1nc(N2CCN(Cc3ccc(N4CCC(=O)NC4=O)nc3)CC2)c2cnc(Nc3ccnc(-c4cnn(S(=O)(=O)C5CC5)c4)n3)cc21 [GT-06015, 1-(5-((4-(6-((2-(1-(cyclopropylsulfonyl)-1H-pyrazol-4-yl)pyrimidin-4-yl)amino)-1-isopropyl-1H-pyrazolo[4,3-c]pyridin-3-yl)piperazin-1-yl)methyl)pyridin-2-yl)dihydropyrimidine-2,4(1H,3H)-dione]",A (A is defined as 0% ≤ substrate protein remaining % ≤ 80%)
8,"O=C1CCN(c2ccc(CN3C4CCC3CN(c3ccc(-c5cc(F)c6c(c5)C(=O)N(C(C(=O)Nc5nccs5)c5ncn7c5CCC7)C6)cc3)C4)cn2)C(=O)N1 (centres unmarked) [GT-06256, 2-(6,7-dihydro-5H-pyrrolo[1,2-c]imidazol-1-yl)-2-(6-(4-(8-((6-(2,4-dioxotetrahydropyrimidin-1(2H)-yl)pyridin-3-yl)methyl)-3,8-diazabicyclo[3.2.1]octan-3-yl)phenyl)-4-fluoro-1-oxoisoindolin-2-yl)-N-(thiazol-2-yl)acetamide]",A (A is defined as 0% ≤ substrate protein remaining % ≤ 80%)
9,"COc1cc(N2CCC(N(C)Cc3ccc(C4CCC(=O)NC4=O)c(F)c3)CC2)c(C)cc1Nc1ncc(Br)c(Nc2ccc3nccnc3c2P(C)(C)=O)n1 (centres unmarked) [GT-03931, 3-(4-(((1-(4-((5-bromo-4-((5-(dimethylphosphoryl)quinoxalin-6-yl)amino)pyrimidin-2-yl)amino)-5-methoxy-2-methylphenyl)piperidin-4-yl)(methyl)amino)methyl)-2-fluorophenyl)piperidine-2,6-dione]",A (A is defined as 0% ≤ substrate protein remaining % ≤ 80%)
10,"CC(C)n1nc(N2CCN(Cc3ccc(N4CCC(=O)NC4=O)cn3)CC2)c2cnc(Nc3ccnc(-c4cnn(S(=O)(=O)C5CC5)c4)n3)cc21 [GT-06014, 1-(6-((4-(6-((2-(1-(cyclopropylsulfonyl)-1H-pyrazol-4-yl)pyrimidin-4-yl)amino)-1-isopropyl-1H-pyrazolo[4,3-c]pyridin-3-yl)piperazin-1-yl)methyl)pyridin-3-yl)dihydropyrimidine-2,4(1H,3H)-dione]",A (A is defined as 0% ≤ substrate protein remaining % ≤ 80%)
11,"CN(Cc1ccc(N2CCC(=O)NC2=O)cc1)C1CCN(c2ccc(Nc3ncc4nc(Nc5ccccc5)n(C5CCCC5)c4n3)cc2)CC1 [GT-07092, 1-(4-(((1-(4-((9-cyclopentyl-8-(phenylamino)-9H-purin-2-yl)amino)phenyl)piperidin-4-yl)(methyl)amino)methyl)phenyl)dihydropyrimidine-2,4(1H,3H)-dione]",A (A is defined as 0% ≤ substrate protein remaining % ≤ 80%)
12,"CC(C)n1nc(N2CCC(N3CCN(Cc4cccc(NC5CCC(=O)NC5=O)c4)CC3)CC2)c2cnc(Nc3ccnc(-c4cnn(S(=O)(=O)C5CC5)c4)n3)cc21 (centres unmarked) [GT-06083, 3-((3-((4-(1-(6-((2-(1-(cyclopropylsulfonyl)-1H-pyrazol-4-yl)pyrimidin-4-yl)amino)-1-isopropyl-1H-pyrazolo[4,3-c]pyridin-3-yl)piperidin-4-yl)piperazin-1-yl)methyl)phenyl)amino)pip eridine-2,6-dione]",A (A is defined as 0% ≤ substrate protein remaining % ≤ 80%)
13,"COC1CCN(c2nccc(Nc3cc4c(cn3)c(N3CCC(N(C)Cc5ccc(N6CCC(=O)NC6=O)cc5)CC3)nn4C(C)C)n2)CC1 [GT-06121, 1-(4-(((1-(1-isopropyl-6-((2-(4-methoxypiperidin-1-yl)pyrimidin-4-yl)amino)-1H-pyrazolo[4,3-c]pyridin-3-yl)piperidin-4-yl)(methyl)amino)methyl)phenyl)dihydropyrimidine-2,4(1H,3H)-dione]",A (A is defined as 0% ≤ substrate protein remaining % ≤ 80%)
14,"COc1cc(N2CCN(Cc3ccc(C4CCC(=O)NC4=O)c(F)c3)CC2)c(C)cc1Nc1ncc(Br)c(Nc2ccc3nccnc3c2P(C)(C)=O)n1 (centres unmarked) [GT-03914, 3-(4-((4-(4-((5-bromo-4-((5-(dimethylphosphoryl)quinoxalin-6-yl)amino)pyrimidin-2-yl)amino)-5-methoxy-2-methylphenyl)piperazin-1-yl)methyl)-2-fluorophenyl)piperidine-2,6-dione]",A (A is defined as 0% ≤ substrate protein remaining % ≤ 80%)
15,"COC1CCN(c2nccc(Nc3cc4c(cn3)c(N3CCC(N(C)Cc5cccc(N6CCC(=O)NC6=O)c5)CC3)nn4C(C)C)n2)CC1 [GT-06122, 1-(3-(((1-(1-isopropyl-6-((2-(4-methoxypiperidin-1-yl)pyrimidin-4-yl)amino)-1H-pyrazolo[4,3-c]pyridin-3-yl)piperidin-4-yl)(methyl)amino)methyl)phenyl)dihydropyrimidine-2,4(1H,3H)-dione]",A (A is defined as 0% ≤ substrate protein remaining % ≤ 80%)
16,"CN(Cc1cccc(NC2CCC(=O)NC2=O)c1)C1CCN(c2ccc(Nc3ncc4nc(Nc5ccccc5)n(C5CCCC5)c4n3)cc2)CC1 (centres unmarked) [GT-07094, 3-((3-(((1-(4-((9-cyclopentyl-8-(phenylamino)-9H-purin-2-yl)amino)phenyl)piperidin-4-yl)(methyl)amino)methyl)phenyl)amino)piperidine-2,6-dione]",A (A is defined as 0% ≤ substrate protein remaining % ≤ 80%)

# Test system: H1975
# Assay: CCK-8 proliferation, NCI-H1975 (H1975)
# Assay type: cell-based, Human
# Settings: Homo sapiens, NCI-H1975; CCK-8; 96 hours; read-out: Inhibitory activity (IC50) on tumor cell proliferation, H1975
# Outline: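 Tumor cells were cultured at 37°C with 5% CO2, seeded, and after 24h treated with compounds at 10 concentrations starting at 10µM (5-fold serial dilutions).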
row,IC50 [nM],Compound
1,10 to 50,"O=C1CCC(c2ccc(CN3CCN(C4CCN(c5ccc(-c6cc(F)c7c(c6)C(=O)N(C(C(=O)Nc6nccs6)c6ncn8c6CCC8)C7)cc5)CC4(F)F)CC3)cc2)C(=O)N1 (centres unmarked) [GT-06317, 2-(6,7-dihydro-5H-pyrrolo[1,2-c]imidazol-1-yl)-2-(6-(4-(4-(4-(4-(2,6-dioxopiperidin-3-yl)benzyl)piperazin-1-yl)-3,3-difluoropiperidin-1-yl)phenyl)-4-fluoro-1-oxoisoindolin-2-yl)-N-(thiazol-2-yl)acetamide]"
